According to the supplement of paper PMC10307832:

Columns and labels:
Assay in all cases: relative viability (nuclei count vs DMSO), 5 days (fraction); higher = more cells survive
CAP-232 + Bortezomib = compound: C[C@H]([C@@H](C(=O)N)NC(=O)[C@@H]1CSSC[C@@H](C(=O)N[C@H](C(=O)N[C@@H](C(=O)N[C@H](C(=O)N1)CCCCN)CC2=CNC3=CC=CC=C32)CC4=CC=C(C=C4)O)NC(=O)[C@@H](CC5=CC=CC=C5)N)O [CAP-232] + CC(C)C[C@H](NC(=O)[C@H](Cc1ccccc1)NC(=O)c1cnccn1)B(O)O [Bortezomib] (partner 0.002 µM)
Summary of the method: (§1)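 Medians of duplicate plates are given as relative viability. That measure is the nuclei count in treated wells divided by the count in vehicle wells. Counts were taken on 4× images of lung cancer cell lines in 1536-well plates, 5 days after pin-tool dosing the day after seeding with one drug alone or a fixed anchor-drug dose plus five library-drug doses (not always all listed) in √10 steps.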

CAP-232 + Decitabine = compound: C[C@H]([C@@H](C(=O)N)NC(=O)[C@@H]1CSSC[C@@H](C(=O)N[C@H](C(=O)N[C@@H](C(=O)N[C@H](C(=O)N1)CCCCN)CC2=CNC3=CC=CC=C32)CC4=CC=C(C=C4)O)NC(=O)[C@@H](CC5=CC=CC=C5)N)O [CAP-232] + Nc1ncn([C@H]2C[C@H](O)[C@@H](CO)O2)c(=O)n1 [Decitabine] (partner 2 µM)
Summary of the method: as §1

CAP-232 + Linsitinib = compound: C[C@H]([C@@H](C(=O)N)NC(=O)[C@@H]1CSSC[C@@H](C(=O)N[C@H](C(=O)N[C@@H](C(=O)N[C@H](C(=O)N1)CCCCN)CC2=CNC3=CC=CC=C32)CC4=CC=C(C=C4)O)NC(=O)[C@@H](CC5=CC=CC=C5)N)O [CAP-232] + C[C@]1(O)C[C@@H](c2nc(-c3ccc4ccc(-c5ccccc5)nc4c3)c3c(N)nccn32)C1 [Linsitinib] (partner 1 µM)
Summary of the method: as §1

CAP-232 + Phenformin = compound: C[C@H]([C@@H](C(=O)N)NC(=O)[C@@H]1CSSC[C@@H](C(=O)N[C@H](C(=O)N[C@@H](C(=O)N[C@H](C(=O)N1)CCCCN)CC2=CNC3=CC=CC=C32)CC4=CC=C(C=C4)O)NC(=O)[C@@H](CC5=CC=CC=C5)N)O [CAP-232] + N=C(N)NC(=N)NCCc1ccccc1 [Phenformin] (partner 250 µM)
Summary of the method: as §1

CAP-232 + AZD7762 = compound: C[C@H]([C@@H](C(=O)N)NC(=O)[C@@H]1CSSC[C@@H](C(=O)N[C@H](C(=O)N[C@@H](C(=O)N[C@H](C(=O)N1)CCCCN)CC2=CNC3=CC=CC=C32)CC4=CC=C(C=C4)O)NC(=O)[C@@H](CC5=CC=CC=C5)N)O [CAP-232] + NC(=O)Nc1cc(-c2cccc(F)c2)sc1C(=O)N[C@H]1CCCNC1 [AZD7762] (partner 0.2 µM)
Summary of the method: as §1

Cell Line	relative viability (CAP-232 + Bortezomib; first compound 0.4 µM)	relative viability (CAP-232 + Bortezomib; first compound 1.265 µM)	relative viability (CAP-232 + Bortezomib; first compound 4 µM)	relative viability (CAP-232 + Bortezomib; first compound 12.65 µM)	relative viability (CAP-232 + Decitabine; first compound 0.4 µM)	relative viability (CAP-232 + Decitabine; first compound 1.265 µM)	relative viability (CAP-232 + Decitabine; first compound 4 µM)	relative viability (CAP-232 + Decitabine; first compound 12.65 µM)	relative viability (CAP-232 + Linsitinib; first compound 0.4 µM)	relative viability (CAP-232 + Linsitinib; first compound 1.265 µM)	relative viability (CAP-232 + Linsitinib; first compound 4 µM)	relative viability (CAP-232 + Linsitinib; first compound 12.65 µM)	relative viability (CAP-232 + Phenformin; first compound 0.4 µM)	relative viability (CAP-232 + Phenformin; first compound 1.265 µM)	relative viability (CAP-232 + Phenformin; first compound 4 µM)	relative viability (CAP-232 + Phenformin; first compound 12.65 µM)	relative viability (CAP-232 + AZD7762; first compound 0.4 µM)	relative viability (CAP-232 + AZD7762; first compound 1.265 µM)	relative viability (CAP-232 + AZD7762; first compound 4 µM)	relative viability (CAP-232 + AZD7762; first compound 12.65 µM)
HCC-15	1.16	1	1.27	0.77	0.686	0.62	0.638	0.176	0.853	0.894	0.912	0.805	0.477	0.465	0.481	0.236	1.36	1.28	1.34	1.14
HCC-44	1	0.864	0.948	0.893	1.03	0.962	0.972	0.935	0.817	0.666	0.754	0.627	0.392	0.128	0.194	0.171	0.995	1.06	1.04	0.986
HCC-78	0.544	0.563	0.489	0.396	0.755	0.764	0.687	0.636	0.53	0.559	0.371	0.408	0.859	0.806	0.746	0.54	0.747	0.612	0.591	0.713
HCC-366	1.22	0.942	1.15	1	0.407	0.301	0.317	0.384	0.745	0.628	0.824	0.537	0.6	0.588	0.66	0.631	0.399	0.328	0.308	0.374
HCC-827	1.19	1.06	1.03	1	0.334	0.357	0.324	0.365	0.911	0.893	0.921	0.959	0.409	0.384	0.387	0.418	0.19	0.204	0.174	0.182
HOP-62	0.924		1.11	0.699	0.255	0.209	0.256	0.229	0.776		0.954	0.946	0.71	0.675	0.72	0.55	0.883	0.482	0.981	0.607
LC-2-ad	1.05	1.01	1.11	1	0.866	0.705	0.76	0.771	0.84	0.847	0.766	0.807	0.707	0.514	0.603	0.257	0.917	0.815	0.919	0.688
LCLC-97TM1	0.83	0.765	0.856	0.555	0.195	0.211	0.192	0.237	0.148	0.21	0.218	0.18	0.462	0.387	0.463	0.422	0.442	0.238	0.341	0.429
LCLC-103H	1.33	0.927	1.16	1	0.777	0.687	0.735	0.704	1.13	1.08	1.13	0.946	0.368	0.342	0.315	0.325	0.89	0.792	0.891	0.747
LOU-NH91	0.528	0.458	0.463	0.549	0.787	0.787	0.8	0.594	0.923	1.06	0.865	0.719	0.725	0.752	0.769	0.487	0.857	0.758	0.799	0.287
LU99A	1.14	1.1	1.18	1.05	0.861	0.806	1.1	0.973	0.52	0.504	0.506	0.533	0.866	0.751	0.839	0.8	0.422	0.359	0.269	0.335
LXF-289	1.06	0.976	0.975	1	0.331	0.36	0.391	0.343	1.05	0.952	0.992	0.983	0.508	0.519	0.512	0.554	1.19	1.16	1.15	1.27
NCI-H23	1.15	1.03	1.06	0.953	0.293	0.295	0.296	0.295	0.5	0.624	0.587	0.543	0.84	0.813	0.833	0.678	0.286	0.236	0.239	0.22
NCI-H322M	1.53	1.2	1.14	1.28	0.706	0.654	0.701	0.704	1.14	0.916	0.941	0.959	0.873	0.709	0.759	0.862	0.827	0.645	0.528	0.556
NCI-H441	0.429	0.357	0.392	0.436	0.26	0.242	0.286	0.234	0.439	0.64	0.699	0.5	0.82	0.897	0.982	0.864	1.03	1.16	1.22	0.922
NCI-H460	1.49	1.17	1.22	0.812	0.496	0.475	0.541	0.17	0.89	0.865	0.986	0.44	0.634	0.529	0.567	0.307	0.856	0.58	0.734	0.416
NCI-H596	1.14	1.2	0.701	0.925	1.03	0.971	0.69	0.965	1.05	1.05	1.14	1.06	0.679	0.604	0.899	0.653	1.1	1.13	1.05	1.09
NCI-H647	0.938	0.807	0.931	0.562	0.308	0.372	0.318	0.297	1.09	1.13	1.5	0.851	0.434	0.561	0.637	0.401	0.767	0.33	0.696	0.282
NCI-H650	0.999	0.754	0.792	0.769	0.342	0.278	0.278	0.156	1.12	0.808	0.872	0.846	0.443	0.416	0.472	0.413	1.29	1.03	1.02	0.951
NCI-H727		0.754	1.11	0.601	0.717	0.831	1.07	0.957		0.346	0.316	0.245	0.511	0.488	0.536	0.533	0.572	0.586	0.612	0.617
NCI-H838	0.916	0.643	0.86	0.544	0.408	0.469	0.479	0.374	1.09	1.01	1.08	0.595	0.609	0.53	0.593	0.537	1.05	0.995	0.989	0.823
NCI-H1355	1.27	1.22	1.39	1.24	0.339	0.33	0.391	0.338	0.776	0.901	1.02	0.754	0.517	0.467	0.43	0.418	0.794	0.82	0.872	0.706
NCI-H1437	0.604	0.584	0.598	0.521	0.559	0.535	0.624	0.523	1.04	1.03	1.17	0.664	0.297	0.307	0.327	0.254	1.15	1.11	1.09	1.05
NCI-H1651	1.01	0.939	1.02	0.953	0.681	0.579	0.707	0.683	1.02	0.937	1.01	0.655	0.407	0.32	0.352	0.25	0.487	0.429	0.553	0.481
NCI-H1666	0.759		0.952	0.393	0.711	0.735	0.814	0.796	0.721		0.85	0.619	0.611	0.575	0.573	0.593	0.918	0.882	0.859	0.908
NCI-H1734	0.919	0.902	1.06	0.74	0.484	0.511	0.516	0.397	0.848	0.917	0.951	0.766	0.369	0.321	0.387	0.264	0.637	0.578	0.527	0.426
NCI-H1755	1.05	0.912	1.15	0.887	0.734	0.738	0.761	0.723	1.07	0.975	1.08	0.941	0.676	0.626	0.622	0.582	0.453	0.396	0.536	0.403
